# System: c-Myc
# Experiment: c-Myc immunofluorescence assay
# Format: cell-based, human
# Settings: A549 cells, 24 hours treatment, anti-c-Myc immunofluorescence
# In short: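 A549 cells grown 48 h, exposed 24 h to rising compound concentrations, then fixed, permeabilised and stained for c-Myc plus DAPI. Nuclear-segmented c-Myc fluorescence quantified by high-content imaging at 20×; EC50 from logistic dose–response fits.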
row,SMILES,Myc Efficacy (−LogEC50)
1,"CNC(=O)c1ccc(-c2cn3c(n2)sc2cc(C(=O)NC(C)C(=O)N(C)C)ccc23)cc1 (stereo not shown) [compound 197, N-(1-(dimethylamino)-1-oxopropan-2-yl)-2-(4-(methylcarbamoyl)phenyl) benzo[d]imidazo[2,1-b]thiazole-7-carboxamide]",+ (+ >3 and <5)
2,"CNC(=O)c1ccc(-c2cn3c(n2)sc2cc(C(=O)NC4CN(C)C4)ccc23)cc1 [compound 198, N-(1-methylazetidin-3-yl)-2-(4-(methylcarbamoyl)phenyl) benzo[d]imidazo[2,1-b]thiazole-7-carboxamide]",+ (+ >3 and <5)
3,"CNC(=O)c1ccc(-c2cn3c(n2)sc2cc(C(=O)NC4(CN)CCC4)ccc23)cc1 [compound 199, N-(1-(aminomethyl)cyclobutyl)-2-(4-(methylcarbamoyl)phenyl) benzo[d]imidazo[2,1-b]thiazole-7-carboxamide]",+ (+ >3 and <5)
4,"CNC(=O)c1ccc(-c2cn3c(n2)sc2cc(C(=O)NCC[C@H](C)N)ccc23)cc1 [compound 200, (S)-N-(3-aminobutyl)-2-(4-(methylcarbamoyl)phenyl) benzo[d]imidazo[2,1-b]thiazole-7-carboxamide]",+ (+ >3 and <5)
5,"CNC(=O)c1ccc(-c2cn3c(n2)sc2cc(C(=O)NCCOC)ccc23)cc1 [compound 201, N-(2-methoxyethyl)-2-(4-(methylcarbamoyl)phenyl) benzo[d]imidazo[2,1-b]thiazole-7-carboxamide]",+ (+ >3 and <5)
6,"CNC(=O)c1ccc(-c2cn3c(n2)sc2cc(C(=O)NCCc4cnn(C)c4)ccc23)cc1 [compound 202, N-(2-(1-methyl-1H-pyrazol-4-yl)ethyl)-2-(4-(methylcarbamoyl)phenyl) benzo[d]imidazo[2,1-b]thiazole-7-carboxamide]",− (− ≤3)
7,"CNC(=O)c1ccc(-c2cn3c(n2)sc2cc(C(=O)NCC(C)OC)ccc23)cc1 (stereo not shown) [compound 203, N-(2-methoxypropyl)-2-(4-(methylcarbamoyl)phenyl) benzo[d]imidazo[2,1-b]thiazole-7-carboxamide]",+ (+ >3 and <5)
8,"CNC(=O)c1ccc(-c2cn3c(n2)sc2cc(C(=O)NCC4CCCO4)ccc23)cc1 (stereo not shown) [compound 204, 2-(4-(methylcarbamoyl)phenyl)-N-((tetrahydrofuran-2-yl)methyl)benzo[d]imidazo [2,1-b]thiazole-7-carboxamide]",+ (+ >3 and <5)
9,"CNC(=O)c1ccc(-c2cn3c(n2)sc2cc(C(=O)NC4CCCCC4N)ccc23)cc1 (stereo not shown) [compound 205, N-(2-aminocyclohexyl)-2-(4-(methylcarbamoyl)phenyl) benzo[d]imidazo[2,1-b]thiazole-7-carboxamide]",+ (+ >3 and <5)
10,"CNC(=O)c1ccc(-c2cn3c(n2)sc2cc(C(=O)NC4(C(F)(F)F)COC4)ccc23)cc1 [compound 206, 2-(4-(methylcarbamoyl)phenyl)-N-(3-(trifluoromethyl)oxetan-3-yl)benzo[d]imidazo[2,1-b]thiazole-7-carboxamide]",− (− ≤3)
11,"CNC(=O)c1ccc(-c2cn3c(n2)sc2cc(C(=O)N[C@H]4CCCN(C)C4)ccc23)cc1 [compound 207, (S)-2-(4-(methylcarbamoyl)phenyl)-N-(1-methylpiperidin-3-yl)benzo[d]imidazo[2,1-b]thiazole-7-carboxamide]",++ (++ ≥5 and <6)
12,"CCC(CNC(=O)c1ccc2c(c1)sc1nc(-c3ccc(C(=O)NC)cc3)cn12)N(C)C (stereo not shown) [compound 208, N-(2-(dimethylamino)butyl)-2-(4-(methylcarbamoyl)phenyl) benzo[d]imidazo[2,1-b]thiazole-7-carboxamide]",+ (+ >3 and <5)
13,"CNC(=O)c1ccc(-c2cn3c(n2)sc2cc(C(=O)N[C@H]4CCN(C5CCOCC5)C4)ccc23)cc1 [compound 209, (S)-2-(4-(methylcarbamoyl)phenyl)-N-(1-(tetrahydro-2H-pyran-4-yl)pyrrolidin-3-yl)benzo[d]imidazo[2,1-b]thiazole-7-carboxamide]",+ (+ >3 and <5)
14,"CNC(=O)c1ccc(-c2cn3c(n2)sc2cc(C(=O)NCC4(C)CCOC4)ccc23)cc1 (stereo not shown) [compound 210, 2-(4-(methylcarbamoyl)phenyl)-N-((3-methyltetrahydrofuran-3-yl)methyl)benzo[d]imidazo [2,1-b]thiazole-7-carboxamide]",+ (+ >3 and <5)
15,"CNC(=O)c1ccc(-c2cn3c(n2)sc2cc(C(=O)NCCOC(C)C)ccc23)cc1 [compound 211, N-(2-isopropalyethyl)-2-(4-(methylcarbamoyl)phenyl) benzo[d]imidazo[2,1-b]thiazole-7-carboxamide]",− (− ≤3)
16,"CNC(=O)c1ccc(-c2cn3c(n2)sc2cc(C(=O)NC[C@H]4CCCN(C)C4)ccc23)cc1 [compound 212, (R)-2-(4-(methylcarbamoyl)phenyl)-N-((1-methylpiperidin-3-yl)methyl)benzo[d]imidazo [2,1-b]thiazole-7-carboxamide]",+ (+ >3 and <5)

row,SMILES,Myc Efficacy (−LogEC50)
1,"CNC(=O)c1ccc(-c2cn3c(n2)sc2cc(C(=O)N[C@@H](CO)c4ccccc4)ccc23)cc1 [compound 213, (R)-N-(2-hydroxy-1-phenylethyl)-2-(4-(methylcarbamoyl)phenyl) benzo[d]imidazo[2,1-b]thiazole-7-carboxamide]",+ (+ >3 and <5)
2,"CCN1CCC[C@@H]1CNC(=O)c1ccc2c(c1)sc1nc(-c3ccc(C(=O)NC)cc3)cn12 [compound 214, (R)-N-((1-ethylpyrrolidin-2-yl)methyl)-2-(4-(methylcarbamoyl)phenyl) benzo[d]imidazo[2,1-b]thiazole-7-carboxamide]",+ (+ >3 and <5)
3,"CCN1CCC(CNC(=O)c2ccc3c(c2)sc2nc(-c4ccc(C(=O)NC)cc4)cn23)CC1 [compound 215, N-((1-ethylpiperidin-4-yl)methyl)-2-(4-(methylcarbamoyl)phenyl) benzo[d]imidazo[2,1-b]thiazole-7-carboxamide]",− (− ≤3)
4,"CNC(=O)c1ccc(-c2cn3c(n2)sc2cc(C(=O)NCC4(N(C)C)CCCCC4)ccc23)cc1 [compound 216, N-((1-(dimethylamino)cyclohexyl)methyl)-2-(4-(methylcarbamoyl)phenyl) benzo[d]imidazo[2,1-b]thiazole-7-carboxamide]",+ (+ >3 and <5)
5,"CNC(=O)c1ccc(-c2cn3c(n2)sc2cc(C(=O)NCCN(C(C)C)C(C)C)ccc23)cc1 [compound 217, N-(2-(diisopropylamino)ethyl)-2-(4-(methylcarbamoyl)phenyl) benzo[d]imidazo[2,1-b]thiazole-7-carboxamide]",+ (+ >3 and <5)
6,"CCN(CC)CCCNC(=O)c1ccc2c(c1)sc1nc(-c3ccc(C(NC)C(F)(F)F)cc3)cn12 (stereo not shown) [compound 218, N-(3-(diethylamino)propyl)-2-(4-(2,2,2-trifluoro-1-(methylamino)ethyl)phenyl) benzo[d]imidazo[2,1-b]thiazole-7-carboxamide]",++ (++ ≥5 and <6)
7,"CNC(=O)c1ccc(-c2cn3c(n2)sc2cc(C(=O)N[C@H]4COC[C@@H]4O)ccc23)cc1 [compound 219, N-((3S,4R)-4-hydroxytetrahydrofuran-3-yl)-2-(4-(methylcarbamoyl)phenyl) benzo[d]imidazo[2,1-b]thiazole-7-carboxamide]",+ (+ >3 and <5)
8,"CNC(=O)c1ccc(-c2cn3c(n2)sc2cc(C(=O)N[C@@H](C)CN)ccc23)cc1 [compound 220, (S)-N-(1-aminopropan-2-yl)-2-(4-(methylcarbamoyl)phenyl) benzo[d]imidazo[2,1-b]thiazole-7-carboxamide]",+ (+ >3 and <5)
9,"CNC(=O)c1ccc(-c2cn3c(n2)sc2cc(C(=O)NC(C)Cn4cccn4)ccc23)cc1 (stereo not shown) [compound 221, N-(1-(1H-pyrazol-1-yl)propan-2-yl)-2-(4-(methylcarbamoyl)phenyl) benzo[d]imidazo[2,1-b]thiazole-7-carboxamide]",+ (+ >3 and <5)
10,"CNC(=O)c1ccc(-c2cn3c(n2)sc2cc(C(=O)N[C@H]4CCNC4)ccc23)cc1 [compound 222, (S)-2-(4-(methylcarbamoyl)phenyl)-N-(pyrrolidin-3-yl)benzo[d]imidazo[2,1-b]thiazole-7-carboxamide]",+ (+ >3 and <5)
11,"CNC(=O)c1ccc(-c2cn3c(n2)sc2cc(C(=O)NCc4nncn4C4CC4)ccc23)cc1 [compound 223, N-((4-cyclopropyl-4H-1,2,4-triazol-3-yl)methyl)-2-(4-(methylcarbamoyl)phenyl) benzo[d]imidazo[2,1-b]thiazole-7-carboxamide]",− (− ≤3)
12,"CNC(=O)c1ccc(-c2cn3c(n2)sc2cc(C(=O)NC[C@H]4CCCN4)ccc23)cc1 [compound 224, (R)-2-(4-(methylcarbamoyl)phenyl)-N-(pyrrolidin-2-ylmethyl)benzo[d]imidazo[2,1-b]thiazole-7-carboxamide]",− (− ≤3)
13,"CNC(=O)c1ccc(-c2cn3c(n2)sc2cc(C(=O)N[C@H]4CCN(C)C4)ccc23)cc1 [compound 225, (S)-2-(4-(methylcarbamoyl)phenyl)-N-(1-methylpyrrolidin-3-yl)benzo[d]imidazo[2,1-b]thiazole-7-carboxamide]",+ (+ >3 and <5)
14,"CNC(=O)c1ccc(-c2cn3c(n2)sc2cc(C(=O)NCC4CC(O)C4)ccc23)cc1 (stereo not shown) [compound 226, N-((3-hydroxycyclobutyl)methyl)-2-(4-(methylcarbamoyl)phenyl) benzo[d]imidazo[2,1-b]thiazole-7-carboxamide]",− (− ≤3)
15,"CNC(=O)c1ccc(-c2cn3c(n2)sc2cc(C(=O)N[C@H]4CCCNC4)ccc23)cc1 [compound 227, (S)-2-(4-(methylcarbamoyl)phenyl)-N-(piperidin-3-yl)benzo[d] imidazo[2,1-b]thiazole-7-carboxamide]",++ (++ ≥5 and <6)
